Assay results: patent US20220225910A1, “Modulating Electron Transfer Kinetics in E-DNA-type Sensors” (The Regents of the University of California, priority 2019, published 2022)
Like-named read-outs stand apart in the source and are kept apart here. {C6SH} = six-carbon thiol for deposition on gold; {MB} = methylene blue redox reporter

Legend:
[1] = In vivo pharmacokinetic measurement with indwelling E-AB sensor in jugular vein; details: rat; for distribution rate (a): intravenous
Protocol: In-vivo measurements. All in vivo measurements were performed using a three-electrode setup in which the counter electrodes were made of platinum wire and the reference electrodes were a silver wire coated with a silver chloride film as described above. The measurements carried out in vivo were recorded using a handheld potentiostat from CH Instruments (Model 1242 B). Square Wave Voltammetry (SWV) was performed using a potential window of −0.1 to −0.45 V, a potential step of 0.001 V and 0.05 V amplitude
For in vivo measurements a 30 min sensor baseline was established before the drug infusion. A 3 mL syringe filled with the target drug was connected to the sensor-free catheter (placed in the jugular opposite that in which the sensor is emplaced) and placed in a motorized syringe pump. […] After drug infusion, recordings were taken for up to 1 hour before the next infusion. The real-time plotting and analysis of voltammetric data were carried out with the help of a script written in Python.
Animals. In vivo measurements were performed in male and female Sprague-Dawley rats (4-5 months old) weighing between 300 and 500 g. All animals were pair housed in a standard light cycle room (08:00 on, 20:00 off) and allowed ad libitum access to food and water. For in vivo measurements rats were induced under 5% isoflurane anesthesia in a Plexiglas anesthesia chamber. The rats were then maintained on 2-3% isoflurane gas for the duration of the experiment. A small incision was made above each vein, then each vein was isolated. A small hole was cut into each vein with spring-loaded microscissors. The silastic catheter inserted into the left jugular vein was constructed with a bent steel cannula with a screw-type connector and silastic tubing (11 cm, i.d. 0.64 mm, o.d. 1.19 mm). […]
where A and B are amplitudes, and […] for distribution and elimination, respectively. […] The area under the curve (AUC) was calculated using the parameters A, B, α and β, because integrating the equation 5 from 0 to infinity, it holds: […]
The clearance (ClT) was calculated by the equation: […]

[2] = E-AB sensor binding curves in flowing undiluted whole blood
Protocol: Titration curves. Experimental titration curves were performed in 10 mL of working buffer (137 mM NaCl, KCl 2.7 mM, Na2HPO4 10 mM, KH2PO4 1.8 mM at pH 7.3) using three E-AB sensors modified with the oligonucleotide probe and using a SWV frequency of 10 and 120 Hz.
The binding curves performed in whole blood were conducted following the previous described experimental approach but using a closed-loop system with a continuous flow of whole blood (total volume of 20 mL at 1 mL/s) through a circulator pump.

[3] = E-AB sensor titration curves in working buffer (square wave voltammetry); assay type: binding; details: simple buffered solution
Protocol: Electrode functionalization. […] This was then dissolved in “assembling buffer” (10 mM Na2HPO4 with 1 M NaCl and 1 mM MgCl2 at pH 7.3) at a final concentration of 500 nM. The electrochemically cleaned gold electrodes were then immersed in 200 μL of this solution for 1 hour in the dark. Following this the electrode surface was rinsed with distilled water and incubated overnight at 4° C. in assembling buffer containing 5 mM 6-mercaptohexanol, followed by a further rinse with distilled water before use. […] These were then dissolved in buffer (10 mM Na2HPO4 with 1 M NaCl and 1 mM MgCl2 at pH 7.3) using different ratio of the two DNA probes. The total oligonucleotide concentration was kept constant at 500 nM to maintain a constant DNA probes packing density. The electrochemically cleaned gold electrodes were then immersed in 200 μL of this solution composed of two DNA probes for 1 hour in the dark. Following this step, the electrode surface was rinsed with distilled water and incubated overnight at 4° C. in assembling buffer containing 5 mM 6-mercaptohexanol, followed by a further rinse with distilled water before use. In-vitro measurements. Electrochemical measurements were performed at room temperature using a CH[…] potentiostat with a CHI684 Multiplexer (CH Instruments, Austin, Tex.) and a standard three-electrode cell containing a platinum counter electrode and a Ag/AgCl (3 M KCl) reference electrode. […] Titration curves. […] Using the values estimated from the previous fitting procedure the raw signal current was converted in signal change % (C%) using the following equation: […]

[4] = Square wave voltammetry frequency vs signal change (%); assay type: binding; details: aptamer alone on sensor
Text: Square wave voltammetry frequency vs signal change (%) plot. […] Then the estimated signal change (%) was plotted in function of the relative square wave frequency.

[5] = unstructured 10-base strand; cited from earlier work
[6] = test system: E-AB sensor; experiment: In vivo control injections, sensor specificity; design: species or system Sprague-Dawley rats; details: camptothecin E-AB sensor in live rat, KDM
Text: FIGS. 6A, 6B, and 6C. FIG. 6A depicts signals collected at high (120 Hz) and low (10 Hz) frequencies by a sensor of the invention. […] FIG. 6B: taking the difference (KDM) between the normalized high (120 Hz) and low (10 Hz) frequency signals produces a stable baseline.

[7] = Sensor equilibration time; assay type: binding; details: in buffer, clinically relevant concentrations, 500 Hz
Protocol: Sensor equilibration time. The sensor's equilibration time was determined using the above experimental approach and interrogating the sensor every 5 s in working buffer and using a SWV frequency of 500 Hz. […] The observed signal change was fitted to a single exponential decay to obtain the equilibration time constant of the sensor.

[8] = Solution binding of the unmodified aptamer, using the intrinsic fluorescence of irinotecan; details: unmodified aptamer free in solution, read-out: dissociation constant

Compound	E-AB sensing performance in whole blood [2]	signal gain relative to other variants [3]	dependence of gain on square-wave frequency [4]	other results
CCc1c2c(nc3ccc(OC(=O)N4CCC(N5CCCCC5)CC4)cc13)-c1cc3c(c(=O)n1C2)COC(=O)[C@]3(O)CC [irinotecan]				variation in CMAX or the rate of the distribution phase between rats ([1]; both, Sprague-Dawley, in vivo, 20 mg/kg): 10-20%; distribution rate (a) ([1]; 10 mg kg (first value)): 0.58 ± 0.07 min; distribution rate (a) ([1]; 20 mg kg (second value)): 0.48 min
CA16: camptothecin aptamer, only the G-quadruplex binding pocket: 5′-GGGTGGGTGGGTTGGG-3′ (chemistry not given here)	supported high-gain E-AB sensing	greatest signal gain	only a weak function of square-wave frequency	
CA28: truncated camptothecin aptamer: 5′-CGGACTTGGGTGGGTGGGTTGGGGTACG-3′ (DNA CGGACTTGGGTGGGTGGGTTGGGGTACG; listed as DNA, chemistry not fully specified)	supported high-gain E-AB sensing	greatest signal gain	only a weak function of square-wave frequency	
CA32: truncated camptothecin aptamer: 5′-TCCGGACTTGGGTGGGTGGGTTGGGGTACGGT-3′ (DNA TCCGGACTTGGGTGGGTGGGTTGGGGTACGGT; listed as DNA, chemistry not fully specified)	supported high-gain E-AB sensing	greatest signal gain	only a weak function of square-wave frequency	
CA40_2MM: camptothecin aptamer, two mismatches: 5′-ACGCTCTGGACTTGGGTGGGTGGGTTGGGGTACGGTGTGT-3′ (DNA ACGCTCTGGACTTGGGTGGGTGGGTTGGGGTACGGTGTGT; listed as DNA, chemistry not fully specified)		greatest signal gain		
SEQ ID NO: 8: secondary moiety: unstructured 10-base strand, random sequence of adenines and thymines, reporter-modified (DNA ATTATTTTTT; reporter-modified, reporter and position not given here)				rate of electron transfer [5]: 80 per second
O=c1[nH]cc(F)c(=O)[nH]1 [5-fluorouracil]				sensor response to control injection [6]: do not produce any measurable sensor response
CA40: 40-base truncation of the known camptothecin-binding DNA aptamer; G-quadruplex flanked by a 12-base-pair stem (DNA ACGCTCCGGACTTGGGTGGGTGGGTTGGGGTACGGTGCGT; DNA, 5' {C6SH}, 3' {MB}, backbone not given here; further chemistry not fully specified)				gain [2]: about 15%; association and dissociation kinetics, time constants [7]: < 5 s; Kd ([8]; listed as parent aptamer): 475 nM; Kd [8]: ~475 nM
